Measurements published in the supplement of paper PMC10307832.

Assays:
Assay in all cases: relative viability (nuclei count vs DMSO), 5 days (fraction); higher = more cells survive
Zosuquidar + Navitoclax = compound: O[C@@H](COc1cccc2ncccc12)CN1CCN([C@@H]2c3ccccc3[C@@H]3[C@H](c4ccccc42)C3(F)F)CC1 [Zosuquidar] + CC1(C)CCC(c2ccc(Cl)cc2)=C(CN2CCN(c3ccc(C(=O)NS(=O)(=O)c4ccc(N[C@H](CCN5CCOCC5)CSc5ccccc5)c(S(=O)(=O)C(F)(F)F)c4)cc3)CC2)C1 [Navitoclax] (partner 0.5 µM)
Method in brief: (§1)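 Each reported value is a median over duplicate plates. It expresses relative viability: treated-well nuclei count divided by vehicle-well nuclei count. Lung cancer cell lines in 1536-well plates were dosed by pin tool a day after seeding, alone with one drug or with a fixed anchor-drug dose plus five library-drug doses (not always all listed) in √10 steps, and nuclei were counted after 5 days.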

Kobe2602 + Palbociclib = compound: C1=CC(=CC=C1NC(=S)NNC2=C(C=C(C=C2[N+](=O)[O-])C(F)(F)F)[N+](=O)[O-])F [Kobe2602] + CC(=O)c1c(C)c2cnc(Nc3ccc(N4CCNCC4)cn3)nc2n(C2CCCC2)c1=O [Palbociclib] (partner 0.5 µM)
Method in brief: as §1

[1] = compound: COc1cc2nccc(Oc3ccc(NC(=O)C4(C(=O)Nc5ccc(F)cc5)CC4)cc3)c2cc1OC [Cabozantinib] + Cc1cc(Nc2cc(N3CCN(C)CC3)nc(Sc3ccc(NC(=O)C4CC4)cc3)n2)n[nH]1 [Tozasertib] (partner 0.1 µM)
Method in brief: as §1

Zosuquidar + AZD7762 = compound: O[C@@H](COc1cccc2ncccc12)CN1CCN([C@@H]2c3ccccc3[C@@H]3[C@H](c4ccccc42)C3(F)F)CC1 [Zosuquidar] + NC(=O)Nc1cc(-c2cccc(F)c2)sc1C(=O)N[C@H]1CCCNC1 [AZD7762] (partner 0.2 µM)
Method in brief: as §1

| Cell Line | relative viability (Zosuquidar + Navitoclax; first compound 0.01 µM) | relative viability (Zosuquidar + Navitoclax; first compound 0.03162 µM) | relative viability (Zosuquidar + Navitoclax; first compound 0.1 µM) | relative viability (Zosuquidar + Navitoclax; first compound 0.3162 µM) | relative viability (Zosuquidar + Navitoclax; first compound 1 µM) | relative viability (Kobe2602 + Palbociclib; first compound 0.2 µM) | relative viability (Kobe2602 + Palbociclib; first compound 0.6325 µM) | relative viability (Kobe2602 + Palbociclib; first compound 2 µM) | relative viability (Kobe2602 + Palbociclib; first compound 6.325 µM) | relative viability (Kobe2602 + Palbociclib; first compound 20 µM) | relative viability ([1]; first compound 0.02 µM) | relative viability ([1]; first compound 0.06325 µM) | relative viability ([1]; first compound 0.2 µM) | relative viability ([1]; first compound 0.6325 µM) | relative viability ([1]; first compound 2 µM) | relative viability (Zosuquidar + AZD7762; first compound 0.01 µM) | relative viability (Zosuquidar + AZD7762; first compound 0.03162 µM) | relative viability (Zosuquidar + AZD7762; first compound 0.3162 µM) | relative viability (Zosuquidar + AZD7762; first compound 1 µM) | relative viability (Zosuquidar + AZD7762; first compound 0.1 µM) |
| --- | --- | --- | --- | --- | --- | --- | --- | --- | --- | --- | --- | --- | --- | --- | --- | --- | --- | --- | --- | --- |
| NCI-H1650 | 1.12 | 1.11 | 1.05 | 1.23 | 1.21 | 0.36 | 0.35 | 0.365 | 0.366 | 0.261 | 0.384 | 0.612 | 0.356 | 0.34 | 0.244 |  |  |  |  |  |
| NCI-H1703 | 1.39 | 1.36 | 1.44 | 1.33 | 1.05 |  |  |  |  |  |  |  |  |  |  | 0.0988 | 0.125 | 0.136 | 0.125 |  |
| NCI-H1792 | 0.603 | 0.621 | 0.53 | 0.635 | 0.359 | 0.634 | 0.707 | 0.653 | 0.671 | 0.682 |  |  |  |  |  | 0.539 | 0.623 | 0.817 | 1.19 | 0.5 |
| NCI-H2009 | 1.19 | 1.12 | 1.13 | 1.1 | 1.14 | 0.241 | 0.258 | 0.294 | 0.24 | 0.254 | 0.827 | 0.889 | 0.768 | 0.699 | 0.668 |  |  |  |  |  |
| NCI-H2023 | 0.958 | 1 | 0.916 | 1.05 | 0.92 | 0.33 | 0.41 | 0.405 | 0.32 | 0.255 | 0.401 | 0.437 | 0.301 | 0.232 | 0.15 |  |  |  |  |  |
| NCI-H2228 | 1.12 | 0.679 | 0.922 | 1.12 | 0.775 | 0.843 | 0.625 | 0.687 | 0.691 | 0.838 | 0.342 | 0.306 | 0.296 | 0.29 | 0.196 |  |  |  |  |  |
| NCI-H2342 |  |  |  |  |  | 0.537 | 0.563 | 0.467 | 0.532 | 0.535 | 0.656 | 0.516 | 0.553 | 0.478 | 0.401 | 0.63 | 0.527 | 0.552 | 0.47 | 0.44 |
| SK-LU-1 | 0.82 | 0.789 | 1.44 | 0.974 | 0.586 | 0.396 | 0.402 | 0.338 | 0.428 | 0.459 | 0.414 | 0.371 | 0.378 | 0.342 | 0.299 |  |  |  |  |  |
| SK-MES-1 | 1.19 | 1.18 | 1.09 | 1.25 | 1.25 | 0.323 | 0.338 | 0.335 | 0.28 | 0.201 | 1.09 | 0.991 | 0.999 | 0.927 | 0.753 |  |  |  |  |  |
| SW 900 |  |  |  |  |  | 0.621 | 0.53 | 0.559 | 0.567 | 0.551 | 0.551 | 0.481 | 0.814 | 0.464 | 0.299 | 0.597 | 0.782 | 0.668 | 0.636 |  |
| SW 1573 | 0.974 | 0.896 | 1.07 | 1.05 | 1.02 | 0.405 | 0.477 | 0.375 | 0.358 | 0.281 | 0.149 | 0.146 | 0.18 | 0.148 | 0.177 |  |  |  |  |  |
